Experimental data: PMC5617480 (Oncotarget, 2017)

Tested on: telomeres/telomerase-related genes
Assay: RT-qPCR array (Telomeres & Telomerase PCR Array)
Type: cell-based, human
Conditions: BEL-7404 cells, 10 μM, 24 h
Protocol: To determine the mechanism(s), we further explored the effect of complex 6 on the expression of telomeres/telomerase-related genes (such as TRF1, hTERT, TRF2, c-myc, and 53BP1) in the BEL-7404 model. Firstly, RT-qPCR array was used to determine mRNA levels of telomeres/telomerase-related gene expressions in BEL-7404 cells when the cells were treated with complex 6. […] Secondly, these telomerase-related genes were determined by western blot. […]
In addition, RNA
30.0 min at room temperature in the dark. Finally, the extraction, RT-PCR, and the selective binding to G4s by BEL-7404 cell cycle was determined with FACS Calibur complexes 4–6 was according to the our previous reported flow cytometer (BD) and analyzed using Cell Quest. […]
ME). Gene expression by a panel of genes for RT-Determination of caspase-3/9 activity by flow qPCR array cytometric analysis Differential expression of telomeres/telomerase-related genes was analyzed using the Telomeres &
Colorimetric analysis of caspase-9 and caspase-3 Telomerase PCR Array (RT2 Profiler™ PCR Array Human activation in BEL-7404 cells exposed to 10 μM of Telomeres & Telomerase, PAHS-010Z, SABioscience, complexes 4–6 for 24.0 h were carried out using the USA) obtained from Kangchen Bio-tech, Shanghai, China.
CaspGLOW™ Fluorescein Active Caspase-9/Caspase-3 RNA was extracted according to standard protocols and Staining Kit. The BEL-7404 cells treated with complexes converted to first strand cDNA using the RT2 First Strand 4–6 and the controlled BEL-7404 cells were harvested Kit. The template was added to an instrument specific, from RPMI 1640 medium with 10% FBS, in a density of ready-to-use RT2 SYBR Green qPCR Master Mix. The 1.0 × 10^6 cells per milliliter. These cells were washed with resulting mixture was added to the wells (25.0 μL/well) of PBS and centrifuged for 3 times, and were then mixed the PCR Array plate containing the telomere maintenance, with 500 μL culture. 1.0 μL of FITC-LEHD-FMK or/telomere-associated complexes, telomere regulation and FITC-DEVD-FMK were consequently added and other genes associated with telomeres gene-specific primer incubated for 2.0 h at 37 °C with 5% CO2. The BEL- sets (25 μL for 96-well plates) and PCR was performed.
7404 cells were then determined with a FACS AriaII flow The threshold cycle (Ct) values for all the genes on each cytometer equipped with a 488 nm argon laser. Results PCR Array were calculated using the instrument specific were represented as the percent change on the activity software and the fold-changes in gene expression for pair-comparing with the control group. wise comparison were calculated using the 2-ΔCt method.
Western blot assay TRAP Assay (TRAP-silver staining assay)
The BEL-7404 Cells were treated with the same as Each telomerase extract was prepared from BEL-the above for 24.0 h with complexes 4–6 (10 μM), and 7404 cells. A modified version of the TRAP assay was total proteins were extracted by lysis buffer RIPA. Then used. The PCR was performed in a final […] use BCA protein assay to measure concentrations of each reaction volume composed of reaction mix ([…]) sample. After electrophoresis on 10% PAGE-SDS gel containing pH 8.0 Tris-HCl (20.0 mM), deoxynucleotide and blotting, anti-mutp53, 53BP1, TRF1, TRF2, hTERT, triphosphates ([…]), BSA (20 mg/mL), primer

In the case of cis-[PtCl2(S-(–)-FOA)] [complex 6], the “Fold Change, ABL1” value is reported as 0.80, the “Fold Change, ACD” value is reported as 1.16 and the “Fold Change, ACTB” value is reported as 0.76. For the same substance, the “Fold Change, AKT1” value was 0.77, the “Fold Change, ATM” value was 1.08 and the “Fold Change, ATP5C1” value was 1.19. The “Fold Change, B2M” value was 1.15, the “Fold Change, BCL2” value was 0.76 and the “Fold Change, BLM” value was 1.21. For the same substance, the “Fold Change, CDK2” value was 0.80, the “Fold Change, CHEK1” value was 1.13 and the “Fold Change, CHEK2” value was 1.23. The “Fold Change, DCLRE1B” value was 0.81, the “Fold Change, DCLRE1C” value was 1.20 and the “Fold Change, DKC1” value was 1.14. For the same substance, the “Fold Change, EGF” value was 1.11, the “Fold Change, EME1” value was 1.26 and the “Fold Change, ERCC1” value was 1.00. For the same substance, the “Fold Change, ERCC4” value was 1.22, the “Fold Change, GAPDH” value was 0.97 and the “Fold Change, GAR1” value was 0.95. The “Fold Change, HAT1” value was 1.13, the “Fold Change, HNRNPA2B1” value was 1.06 and the “Fold Change, HNRNPD” value was 0.95. The “Fold Change, HPRT1” value was 1.14, the “Fold Change, HSP90AA1” value was 1.35 and the “Fold Change, HSPA1L” value was 1.65. The “Fold Change, IGF1” value was 0.02, the “Fold Change, KRAS” value was 0.88 and the “Fold Change, KRIT1” value was 1.12. The “Fold Change, MEN1” value was 1.14, the “Fold Change, MRE11A” value was 1.41 and the “Fold Change, MSH2” value was 0.90. For the same substance, the “Fold Change, MSH3” value was 0.66, the “Fold Change, MUS81” value was 1.55 and the “Fold Change, MYC” value was 0.75. For the same substance, the “Fold Change, NBN” value was 0.79, the “Fold Change, NCL” value was 1.04 and the “Fold Change, NHP2” value was 1.46. The “Fold Change, NOP10” value was 0.82, the “Fold Change, OBFC1” value was 1.32 and the “Fold Change, PARP1” value was 1.02. The “Fold Change, PAX8” value was 9.91, the “Fold Change, PIF1” value was 0.84 and the “Fold Change, PINX1” value was 1.13. The “Fold Change, PLK1” value was 0.72, the “Fold Change, POT1” value was 0.87 and the “Fold Change, PPARG” value was 1.08. The “Fold Change, PPP2R1A” value was 0.88, the “Fold Change, PPP2R1B” value was 0.68 and the “Fold Change, PRKCA” value was 1.12. The “Fold Change, PRKCB” value was 0.48, the “Fold Change, PRKDC” value was 0.83 and the “Fold Change, PTGES3” value was 1.07. The “Fold Change, PURA” value was 1.07, the “Fold Change, RAD17” value was 1.11 and the “Fold Change, RAD50” value was 1.44. The “Fold Change, RAP1A” value was 0.90, the “Fold Change, RAPGEF1” value was 0.97 and the “Fold Change, RASSF1” value was 1.26. For the same substance, the “Fold Change, RB1” value was 0.59, the “Fold Change, RFC1” value was 1.33 and the “Fold Change, RIF1” value was 1.67. For the same substance, the “Fold Change, RPLP0” value was 1.05, the “Fold Change, RTEL1” value was 0.39 and the “Fold Change, SART1” value was 1.50. For the same substance, the “Fold Change, SIRT2” value was 0.84, the “Fold Change, SIRT6” value was 1.89 and the “Fold Change, SLX4” value was 0.87. The “Fold Change, SMAD3” value was 0.65, the “Fold Change, SMG6” value was 1.05 and the “Fold Change, SP1” value was 0.70. For the same substance, the “Fold Change, SSB” value was 1.14, the “Fold Change, SUN1” value was 1.04 and the “Fold Change, TEP1” value was 1.73. For the same substance, the “Fold Change, TERF1” value was 1.39, the “Fold Change, TERF2” value was 0.99 and the “Fold Change, TERF2IP” value was 1.47. The “Fold Change, TERT” value was 0.89, the “Fold Change, TGFB1” value was 1.46 and the “Fold Change, TINF2” value was 1.14. For the same substance, the “Fold Change, TNKS” value was 1.12, the “Fold Change, TNKS2” value was 1.02 and the “Fold Change, TP53” value was 1.45. For the same substance, the “Fold Change, TP53BP1” value was 1.18, the “Fold Change, TPP1” value was 1.07 and the “Fold Change, WRAP53” value was 0.94. For the same substance, the “Fold Change, XRCC5” value was 0.76, the “Fold Change, XRCC6” value was 1.15 and the “Fold Up-or Down-Regulation, ABL1” value was -1.25. For the same substance, the “Fold Up-or Down-Regulation, ACD” value was 1.16, the “Fold Up-or Down-Regulation, ACTB” value was -1.32 and the “Fold Up-or Down-Regulation, AKT1” value was -1.30. The “Fold Up-or Down-Regulation, ATM” value was 1.08, the “Fold Up-or Down-Regulation, ATP5C1” value was 1.19 and the “Fold Up-or Down-Regulation, B2M” value was 1.15. The “Fold Up-or Down-Regulation, BCL2” value was -1.32, the “Fold Up-or Down-Regulation, BLM” value was 1.21 and the “Fold Up-or Down-Regulation, CDK2” value was -1.24. The “Fold Up-or Down-Regulation, CHEK1” value was 1.13, the “Fold Up-or Down-Regulation, CHEK2” value was 1.23 and the “Fold Up-or Down-Regulation, DCLRE1B” value was -1.24. The “Fold Up-or Down-Regulation, DCLRE1C” value was 1.20, the “Fold Up-or Down-Regulation, DKC1” value was 1.14 and the “Fold Up-or Down-Regulation, EGF” value was 1.11. The “Fold Up-or Down-Regulation, EME1” value was 1.26, the “Fold Up-or Down-Regulation, ERCC1” value was -1.00 and the “Fold Up-or Down-Regulation, ERCC4” value was 1.22. For the same substance, the “Fold Up-or Down-Regulation, GAPDH” value was -1.04, the “Fold Up-or Down-Regulation, GAR1” value was -1.05 and the “Fold Up-or Down-Regulation, HAT1” value was 1.13. The “Fold Up-or Down-Regulation, HNRNPA2B1” value was 1.06, the “Fold Up-or Down-Regulation, HNRNPD” value was -1.06 and the “Fold Up-or Down-Regulation, HPRT1” value was 1.14. For the same substance, the “Fold Up-or Down-Regulation, HSP90AA1” value was 1.35, the “Fold Up-or Down-Regulation, HSPA1L” value was 1.65 and the “Fold Up-or Down-Regulation, IGF1” value was -57.88. For the same substance, the “Fold Up-or Down-Regulation, KRAS” value was -1.13, the “Fold Up-or Down-Regulation, KRIT1” value was 1.12 and the “Fold Up-or Down-Regulation, MEN1” value was 1.14. The “Fold Up-or Down-Regulation, MRE11A” value was 1.41, the “Fold Up-or Down-Regulation, MSH2” value was -1.11 and the “Fold Up-or Down-Regulation, MSH3” value was -1.51. For the same substance, the “Fold Up-or Down-Regulation, MUS81” value was 1.55, the “Fold Up-or Down-Regulation, MYC” value was -1.33 and the “Fold Up-or Down-Regulation, NBN” value was -1.27. For the same substance, the “Fold Up-or Down-Regulation, NCL” value was 1.04, the “Fold Up-or Down-Regulation, NHP2” value was 1.46 and the “Fold Up-or Down-Regulation, NOP10” value was -1.22. The “Fold Up-or Down-Regulation, OBFC1” value was 1.32, the “Fold Up-or Down-Regulation, PARP1” value was 1.02 and the “Fold Up-or Down-Regulation, PAX8” value was 9.91. The “Fold Up-or Down-Regulation, PIF1” value was -1.19, the “Fold Up-or Down-Regulation, PINX1” value was 1.13 and the “Fold Up-or Down-Regulation, PLK1” value was -1.39. The “Fold Up-or Down-Regulation, POT1” value was -1.14, the “Fold Up-or Down-Regulation, PPARG” value was 1.08 and the “Fold Up-or Down-Regulation, PPP2R1A” value was -1.13. For the same substance, the “Fold Up-or Down-Regulation, PPP2R1B” value was -1.46, the “Fold Up-or Down-Regulation, PRKCA” value was 1.12 and the “Fold Up-or Down-Regulation, PRKCB” value was -2.06. The “Fold Up-or Down-Regulation, PRKDC” value was -1.20, the “Fold Up-or Down-Regulation, PTGES3” value was 1.07 and the “Fold Up-or Down-Regulation, PURA” value was 1.07. For the same substance, the “Fold Up-or Down-Regulation, RAD17” value was 1.11, the “Fold Up-or Down-Regulation, RAD50” value was 1.44 and the “Fold Up-or Down-Regulation, RAP1A” value was -1.11. The “Fold Up-or Down-Regulation, RAPGEF1” value was -1.03, the “Fold Up-or Down-Regulation, RASSF1” value was 1.26 and the “Fold Up-or Down-Regulation, RB1” value was -1.70. For the same substance, the “Fold Up-or Down-Regulation, RFC1” value was 1.33, the “Fold Up-or Down-Regulation, RIF1” value was 1.67 and the “Fold Up-or Down-Regulation, RPLP0” value was 1.05. The “Fold Up-or Down-Regulation, RTEL1” value was -2.58, the “Fold Up-or Down-Regulation, SART1” value was 1.50 and the “Fold Up-or Down-Regulation, SIRT2” value was -1.19. The “Fold Up-or Down-Regulation, SIRT6” value was 1.89, the “Fold Up-or Down-Regulation, SLX4” value was -1.15 and the “Fold Up-or Down-Regulation, SMAD3” value was -1.55. For the same substance, the “Fold Up-or Down-Regulation, SMG6” value was 1.05, the “Fold Up-or Down-Regulation, SP1” value was -1.43 and the “Fold Up-or Down-Regulation, SSB” value was 1.14. The “Fold Up-or Down-Regulation, SUN1” value was 1.04, the “Fold Up-or Down-Regulation, TEP1” value was 1.73 and the “Fold Up-or Down-Regulation, TERF1” value was 1.39. The “Fold Up-or Down-Regulation, TERF2” value was -1.01, the “Fold Up-or Down-Regulation, TERF2IP” value was 1.47 and the “Fold Up-or Down-Regulation, TERT” value was -1.12. The “Fold Up-or Down-Regulation, TGFB1” value was 1.46, the “Fold Up-or Down-Regulation, TINF2” value was 1.14 and the “Fold Up-or Down-Regulation, TNKS” value was 1.12. For the same substance, the “Fold Up-or Down-Regulation, TNKS2” value was 1.02, the “Fold Up-or Down-Regulation, TP53” value was 1.45 and the “Fold Up-or Down-Regulation, TP53BP1” value was 1.18. The “Fold Up-or Down-Regulation, TPP1” value was 1.07, the “Fold Up-or Down-Regulation, WRAP53” value was -1.06 and the “Fold Up-or Down-Regulation, XRCC5” value was -1.32. For the same substance, the “Fold Up-or Down-Regulation, XRCC6” value was 1.15.
